The values that follow come from patent US8916599B2, “1H-benz imidazole-5-carboxamides as anti-inflammatory agents” (Orexo AB, priority 2008, dated 2014).

As a reminder, the inhibition is the percentage by which the read-out fell short of the control.

The target in the first assay is T1, recombinant human mPGES-1 (Homo sapiens, UniProt O14684).
T1 construct: made in house; host or cells: Rosetta E. coli (microsomal/membrane fraction)
T1 sequence (O14684 1-152): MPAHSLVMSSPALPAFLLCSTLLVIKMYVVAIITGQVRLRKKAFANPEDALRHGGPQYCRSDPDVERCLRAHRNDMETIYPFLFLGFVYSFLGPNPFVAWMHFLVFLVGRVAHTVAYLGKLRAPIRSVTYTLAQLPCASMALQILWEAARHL
The experiment in a line: mPGES-1 inhibition test (microsomes, PGH2 substrate, HTRF detection of PGE2). Particulars: inhibition of mPGES-1 at 1 μM (marked in cell). Type of assay: biochemical. The method, boiled down:
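PGE2 formed from PGH2 in one minute by E. coli-expressed microsomal enzyme (pH 7.4, 2.5 mM GSH) was measured by competitive HTRF against a synthetic PGE2 standard curve. Compounds were preincubated 25 min at room temperature.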
In general terms: In TR-FRET formats the signal depends on donor and acceptor labels being close together.
On to `COc1cc2c(cc1C(=O)Nc1ccc(Br)cc1)nc(Nc1cc(C)ccc1C(F)(F)F)n2C` [Example 641, 2-(5-Methyl-2-trifluoromethyl-phenylamino)-N-(4-bromphenyl)-6-methoxy-1-methyl-1H-benzimidazol-5-carboxamide], for which the inhibition at 1 µM came out at 97%.

Staying with this assay, now noted: inhibition of mPGES-1 at 10 μM.
`O=C(Nc1ccc(Cl)c(Cl)c1)c1ccc2[nH]c(Nc3c(Cl)cccc3Cl)nc2c1` [Example 111, 2-(2,6-Dichloro-phenylamino)-1H-benzimidazole-5-carboxylic acid (3,4-dichloro-phenyl)-amide]: the inhibition at 10 µM was 100%.
For `CC(=O)NCCCn1c(Nc2c(Cl)cccc2Cl)nc2cc(C(=O)Nc3cc(Cl)ccn3)ccc21` [Example 268, 2-(2,6-Dichloro-phenylamino)-1-(3-acetylamino-propyl)-1H-benzimidazole-5-carboxylic acid (4-chloro-pyridin-2-yl)-amide], the inhibition at 10 µM came to 94%.
Take `Cn1c(Nc2c(Cl)cccc2Cl)nc2cc(C(=O)NCc3ncccc3F)c(F)cc21` [Example 536, 2-(2,6-Dichlorophenylamino)-6-fluoro-N-((3-fluoropyridin-2-yl)methyl)-1-methyl-1H-benzimidazole-5-carboxamide]: the inhibition at 10 µM came to 89%.
For `O=C(NC1COc2ccccc2C1)c1ccc2[nH]c(Nc3c(Cl)cccc3Cl)nc2c1` (stereo not drawn) [Example 153, 2-(2,6-Dichloro-phenylamino)-1H-benzimidazole-5-carboxylic acid chroman-3-ylamide], the inhibition at 10 µM came to 98%.
As for `O=C(N[C@H]1CC[C@H](C(F)(F)F)CC1)c1cc2nc(Nc3c(Cl)cccc3Cl)[nH]c2cc1OCC(F)(F)F` [Example 589, 2-(2,6-Dichloro-phenylamino)-6-(2,2,2-trifluoroethoxy)-N-(trans-4-trifluormethyl-cyclohex-1-yl)-1H-benzimidazole-5-carboxamide], the inhibition at 10 µM was 100%.
For the molecule `Cn1c(Nc2c(Cl)cccc2Cl)nc2cc(C(=O)NC3(C#N)CCCCC3)ccc21` [Example 257, 2-(2,6-Dichloro-phenylamino)-1-methyl-1H-benzimidazole-5-carboxylic acid (1-cyano-cyclohexyl)-amide], the inhibition at 10 µM turned out to be 100%.
As for `Cc1ccnc(CNC(=O)c2cc3nc(Nc4c(Cl)cccc4Cl)n(C)c3cc2F)c1` [Example 534, 2-(2,6-Dichlorophenylamino)-6-fluoro-1-methyl-N-((4-methylpyridin-2-yl)methyl)-1H-benzimidazole-5-carboxamide], the inhibition at 10 µM stood at 80%.
Regarding `CN(C)c1cc(C(F)(F)F)cc(NC(=O)c2cc3nc(Nc4c(Cl)cc(F)cc4Cl)[nH]c3cc2OCC(F)(F)F)n1` [Example 575, 2-(2,6-Dichloro-4-fluoro-phenylamino)-N-(6-dimethylamino-4-trifluoromethyl-pyridin-2-yl)-6-(2,2,2-trifluorethoxy)-1H-benzimidazole-5-carboxamide], the inhibition at 10 µM came out at 82%.
On the same count and under the same terms, to `O=C(Nc1cc(Cl)ccn1)c1ccc2c(c1)nc(Nc1c(Cl)cccc1Cl)n2CC(=O)N1CCOCC1` [Example 275, 2-(2,6-Dichloro-phenylamino)-1-(2-morpholin-4-yl-2-oxo-ethyl)-1H-benzimidazole-5-carboxylic acid (4-chloro-pyridin-2-yl)-amide] belongs 96%; to `O=C(N[C@H]1CC[C@H](C(F)(F)F)CC1)c1cc2nc(Nc3c(Cl)cc(F)cc3Cl)[nH]c2cc1OCCF` [Example 584, 2-(2,6-Dichloro-4-fluoro-phenylamino)-N-(trans-4-trifluoro-cyclohex-1-yl)-6-(2-fluoroethoxy)-1H-benzimidazole-5-carboxamide], 96%.
Regarding `CCCC[C@@H](C)NC(=O)c1cc2nc(Nc3c(Cl)cccc3Cl)n(C)c2cc1F` [Example 416, (R)-2-(2,6-Dichlorophenylamino)-6-fluoro-N-(hexan-2-yl)-1-methyl-1H-benzimidazole-5-carboxamide], the inhibition at 10 µM stood at 100%.
Same read-out and setting: the figure for `O=C(N[C@H]1CC[C@@H](C(F)(F)F)CC1)c1ccc2[nH]c(Nc3c(Cl)cccc3Cl)nc2c1` [Example 168, 2-(2,6-Dichloro-phenylamino)-1H-benzimidazole-5-carboxylic acid (cis-4-trifluoromethyl-cyclohexyl)-amide] is 100%.
“2-(2-Chloro-6-fluorophenylamino-N-(4-isopropylcyclohexyl)-6-fluoro-1-methyl-1H-benzimidazole-5-carboxamide [Example 363]”: the “% inhib.” value turned out to be 100%.
As for `CCC1CCC(NC(=O)c2cc3nc(Nc4c(F)cccc4Cl)n(C)c3cc2F)C1` (stereo not drawn) [Example 392, 2-(2-Chloro-6-fluorophenylamino)-N-(3-ethylcyclopentyl)-6-fluoro-1-methyl-1H-benzimidazole-5-carboxamide], the inhibition at 10 µM is 100%.
With `COc1cc2c(cc1C(=O)NCc1ccccc1C(F)(F)F)nc(Nc1c(Cl)cccc1Cl)n2C` [Example 136, 2-(2,6-Dichloro-phenylamino)-6-methoxy-1-methyl-1H-benzimidazole-5-carboxylic acid 2-trifluoromethyl-benzylamide], the inhibition at 10 µM was 98%.
With `O=C(N[C@H]1CC[C@H](C(F)(F)F)CC1)c1cc2nc(Nc3c(Cl)cc(F)cc3Cl)[nH]c2cc1OCC(F)(F)F` [Example 583, 2-(2,6-Dichloro-4-fluoro-phenylamino)-N-(trans-4-trifluoromethyl-cyclohex-1-yl)-6-(2,2,2-trifluoroethoxy)-1H-benzimidazole-5-carboxamide], the inhibition at 10 µM was determined as 95%.
Same read-out and setting: the figure for `Cn1c(Nc2c(Cl)cc(F)cc2Cl)nc2cc(C(=O)NCc3ncccc3C(F)(F)F)ccc21` [Example 542, 2-(2,6-Dichloro-4-fluorophenylamino)-1-methyl-N-((3-trifluoromethyl-pyridin-2-yl)methyl)-1H-benzimidazole-5-carboxamide] is 97%.
Take `CCCCCCCCNC(=O)c1cc2nc(Nc3c(Cl)cccc3Cl)n(C)c2cc1F` [Example 166, 2-(2,6-Dichloro-phenylamino)-6-fluoro-1-methyl-1H-benzimidazole-5-carboxylic acid octylamide]: the inhibition at 10 µM came out at 100%.
In the case of `CCCCCNC(=O)c1cc2nc(Nc3c(Cl)cccc3Cl)n(C)c2cc1F` [Example 391, 2-(2,6-Dichlorophenylamino)-6-fluoro-1-methyl-N-pentyl-1H-benzimidazole-5-carboxamide], the inhibition at 10 µM was found to be 100%.
In the case of `O=C(N[C@H]1CC[C@H](C(F)F)CC1)c1cc2nc(Nc3c(Cl)cccc3Cl)[nH]c2cc1F` [Example 496, 2-(2,6-Dichlorophenylamino)-N-((1r,4r)-4-(difluoromethyl)cyclohexyl)-6-fluoro-1H-benzimidazole-5-carboxamide], the inhibition at 10 µM worked out at 100%.
In the case of `Cc1cccc(NC(=O)c2ccc3[nH]c(Nc4c(Cl)cccc4Cl)nc3c2)n1` [compound 336], the inhibition at 10 µM was 85%.
With `Cc1cc(NC(=O)c2cc3nc(Nc4c(Cl)cc(F)cc4Cl)[nH]c3cc2OCC(F)(F)F)nc(C(F)(F)F)c1` [compound 576], the inhibition at 10 µM is 96%.

The same assay, now with this note: inhibition of mPGES-1 at 10 μM; 10 µM.
Consider `Cn1c(Nc2c(Cl)cccc2Cl)nc2cc(C(=O)NCc3ccccn3)c(F)cc21` [Example 552, 2-(2,6-Dichlorophenylamino)-6-fluoro-1-methyl-N-(pyridin-2-ylmethyl)-1H-benzimidazole-5-carboxamide], for which the “% inhib.” value came to 77%.
